Results as given in patent US6476189B1, “Antibacterial peptides and antibacterial agents containing such peptides as an effective ingredient” (National Institute of Agrobiological Sciences, priority 1998, dated 2002).
Values after ≈ are worked out from the molar mass of the structure shown. Residues, ends and D or L forms follow the SMILES beside them.

Columns and labels:
Format in all cases: cell-based
Pseudomonas aeruginosa = system: Pseudomonas aeruginosa
Description: (§1) Minimum Inhibitory Concentration (MIC) of these antibacterial peptides (1) to (5) against Staphylococcus aureus, methicillin resistant Staphylococcus aureus (MRSA), Escherichia coli and Pseudomonas aeruginosa was determined.

[1] = system: methicillin resistant Staphylococcus aureus (MRSA)
Description: as §1

Staphylococcus aureus = system: Staphylococcus aureus
Description: as §1

CC[C@H](C)[C@H](NC(=O)[C@H](C)NC(=O)[C@H](CC(C)C)NC(=O)[C@H](CC(C)C)NC(=O)[C@H](CC(C)C)NC(=O)[C@H](C)N)C(=O)N[C@@H](CCCNC(=N)N)C(=O)N[C@@H](CCCCN)C(=O)N[C@@H](CCCNC(=N)N)C(N)=O [present peptide (2), Ala-Leu-Leu-Leu-Ala-Ile-Arg-Lys-Arg-NH2] (H-ALLLAIRKR-NH2; N-terminus assumed)
MIC P. aeruginosa (Pseudomonas aeruginosa): 4 µg/mL (≈ 3.8 µM)
MIC MRSA [1]: 40 µg/mL (≈ 38 µM)
MIC S. aureus (Staphylococcus aureus): 4 µg/mL (≈ 3.8 µM)

CC[C@H](C)[C@H](NC(=O)[C@H](C)NC(=O)[C@H](CC(C)C)NC(=O)[C@H](CC(C)C)NC(=O)[C@H](Cc1c[nH]c2ccccc12)NC(=O)[C@H](C)N)C(=O)N[C@@H](CCCNC(=N)N)C(=O)N[C@@H](CCCCN)C(=O)N[C@@H](CCCNC(=N)N)C(N)=O [present peptide (3), Ala-Trp-Leu-Leu-Ala-Ile-Arg-Lys-Arg-NH2] (H-AWLLAIRKR-NH2; N-terminus assumed)
MIC P. aeruginosa (Pseudomonas aeruginosa): 4 µg/mL (≈ 3.55 µM)
MIC MRSA [1]: 25 µg/mL (≈ 22.2 µM)
MIC S. aureus (Staphylococcus aureus): 3 µg/mL (≈ 2.67 µM)

CC[C@H](C)[C@H](NC(=O)[C@H](C)NC(=O)[C@H](CC(C)C)NC(=O)[C@H](Cc1c[nH]c2ccccc12)NC(=O)[C@H](CC(C)C)NC(=O)[C@H](C)N)C(=O)N[C@@H](CCCNC(=N)N)C(=O)N[C@@H](CCCCN)C(=O)N[C@@H](CCCNC(=N)N)C(N)=O [present peptide (5), Ala-Leu-Trp-Leu-Ala-Ile-Arg-Lys-Arg-NH2] (H-ALWLAIRKR-NH2; N-terminus assumed)
MIC P. aeruginosa (Pseudomonas aeruginosa): 10 µg/mL (≈ 8.89 µM)
MIC MRSA [1]: 40 µg/mL (≈ 35.5 µM)
MIC S. aureus (Staphylococcus aureus): 4 µg/mL (≈ 3.55 µM)

CC[C@H](C)[C@H](NC(=O)[C@H](C)NC(=O)[C@H](CC(C)C)NC(=O)[C@H](Cc1ccc(O)cc1)NC(=O)[C@H](CC(C)C)NC(=O)[C@H](C)N)C(=O)N[C@@H](CCCNC(=N)N)C(=O)N[C@@H](CCCCN)C(=O)N[C@@H](CCCNC(=N)N)C(N)=O [present peptide (4), Ala-Leu-Tyr-Leu-Ala-Ile-Arg-Lys-Arg-NH2]
MIC P. aeruginosa (Pseudomonas aeruginosa): 4 µg/mL (≈ 3.63 µM)
MIC MRSA [1]: 30 µg/mL (≈ 27.2 µM)
MIC S. aureus (Staphylococcus aureus): 2 µg/mL (≈ 1.81 µM)

CC[C@H](C)[C@H](NC(=O)[C@H](C)NC(=O)[C@H](CC(C)C)NC(=O)[C@H](CCCNC(=N)N)NC(=O)[C@H](CC(C)C)NC(=O)[C@H](C)N)C(=O)N[C@@H](CCCNC(=N)N)C(=O)N[C@@H](CCCCN)C(=O)N[C@@H](CCCNC(=N)N)C(N)=O [present peptide (1), Ala-Leu-Arg-Leu-Ala-Ile-Arg-Lys-Arg-NH2] (H-ALRLAIRKR-NH2; N-terminus assumed)
MIC P. aeruginosa (Pseudomonas aeruginosa): >15 µg/mL
MIC S. aureus (Staphylococcus aureus): 5 µg/mL (≈ 4.56 µM)
